This passage reports viability results from PMC12040169 (PLOS Biology, 2025).

The data set in a line: in vitro. The note with it: human, hela cells, % viability.
For orientation: viability means a read-out of living cells in per cent, often relative to untreated cells. With `CS(=O)(=O)Nc1cc2ccccc2c(-c2cccnc2)n1` [CBK085747], the viability at 28.5 h, 10 µM amounted to 108%.
On to `CC(C)C(=O)Nc1cc2ccccc2c(-c2cc(F)cc(F)c2)n1` [CBK085775], for which the viability at 28.5 h, 10 µM came to 95.4%.
Consider `CC(C)C(=O)Nc1cc2ccccc2c(-c2ccc(N(C)C)cc2)n1` [CBK085776], for which the viability at 28.5 h, 10 µM amounted to 90.6%.
Turning to `COc1ccc([C@@]23CC[C@@H](NC(=O)Nc4ccc(Cl)cc4Cl)C[C@@H]2CN(C)C3)cc1OC` [CBK085798T], the viability at 28.5 h, 10 µM is 88.5%.
With `Cc1ccc(C(=O)N[C@@H]2C[C@H](C)CC[C@H]2C(C)C)cc1C` [CBK085823], the viability at 28.5 h, 10 µM was determined as 87.1%.
Consider `CC(=O)Nc1ccc(Sc2cnccn2)cc1` [CBK085838], for which the viability at 28.5 h, 10 µM was 89.7%.
As to `Oc1ccccc1Sc1cnccn1` [CBK085840], the viability at 28.5 h, 10 µM was 104%.
Take `c1ccc2c(Sc3cnccn3)cccc2c1` [CBK085841]: the viability at 28.5 h, 10 µM amounted to 90.7%.
The value for `Nc1ccccc1Sc1ccccn1` [CBK085854] was 103%; that for `c1ccc(Sc2cccc3ccccc23)nc1` [CBK085856] was 91.8%; that for `CCOC(=O)c1cnc(SCCc2ccccc2)nc1N` [CBK085871] was 88.1%.
Take `Cc1nc(-c2ccc(S(=O)(=O)NCC3CC3)s2)cs1` [CBK085873]: the viability at 28.5 h, 10 µM stood at 83.9%.
The value for `CC(C)(C)c1ccc(NC(=O)N2CCCN(Cc3ccccc3)CC2)cc1` [CBK085876] was 116%; that for `O=S(=O)(c1ccccc1)c1ccccc1C(F)(F)F` [CBK085887] was 104%.
Consider `Cc1ccc(S(=O)(=O)N(C)CCCC#N)cc1` [CBK085945], for which the viability at 28.5 h, 10 µM amounted to 106%.
For the compound `NC(=O)C1CCN(C(=S)NC2CC3C=CC2C3)CC1` (stereo not shown) [CBK085970], the viability at 28.5 h, 10 µM is 97.4%.
On to `CC(=O)c1nnn(-c2ccc(Cl)cc2Cl)c1C` [CBK085972], for which the viability at 28.5 h, 10 µM stood at 86.7%.
Regarding `CC1CCCN(C(=S)NC2CC3CCC2C3)C1` (stereo not shown) [CBK085999], the viability at 28.5 h, 10 µM was found to be 92.7%.
As for `CC(C)c1ccc(NC(=O)CN2CCN(c3ccc(C(F)(F)F)cn3)CC2)cc1` [CBK086000], the viability at 28.5 h, 10 µM was 81.9%.
Regarding `CC(C)(C)OC(=O)N1CCC(CNS(=O)(=O)c2cccs2)CC1` [CBK086019], the viability at 28.5 h, 10 µM was found to be 100%.
As for `Nc1nc(-c2ccc3c(c2)CCC(=O)N3)cs1` [CBK086133], the viability at 28.5 h, 10 µM turned out to be 80.8%.
The value for `O=S(=O)(NCc1ccccc1)c1ccc(Cl)cc1` [CBK086159] was 86.7%; that for `CCCc1cnc(N2CCN(CC(=O)Nc3ccc(C(C)=O)cc3)CC2)nc1` [CBK086194] was 104%; that for `COc1cc2c(cc1OC)C(C)N(C(=O)Nc1ccc3c(c1)OCCO3)CC2` (stereo not shown) [CBK086204] was 94.8%.
With `CCNc1nc(=S)[nH]c2sc3c(c12)CCC(C)C3` (stereo not shown) [CBK086242], the viability at 28.5 h, 10 µM was 89.2%.
The value for `S=c1[nH]nc(-c2ccc(Cl)cc2)n1-c1cccnc1` [CBK086427] was 83.6%.
For the compound `CNC(=O)Nc1ccc(C(C)(C)C)cc1Br` [CBK086434], the viability at 28.5 h, 10 µM came to 111%.
Turning to `COc1ccccc1C1CCN(C(=O)c2ccc(C(C)(C)C)cc2)CC1` [CBK086469], the viability at 28.5 h, 10 µM turned out to be 84.3%.
As for `O=C(O)/C=C/C(=O)Nc1ccccc1Br` [CBK086488], the viability at 28.5 h, 10 µM amounted to 106%.
On to `Cc1cc(COC(=O)Nc2ccc(Cl)cc2)no1` [CBK086560], for which the viability at 28.5 h, 10 µM came to 93.4%.
The value for `CN(C)C(=O)CSc1cnc2ccccc2n1` [CBK086626] was 86.3%; that for `CCOC(=O)c1cnc2cc(C)ccn2c1=O` [CBK086650] was 93.1%; that for `COC(=O)C1CC(O)CN1S(=O)(=O)c1cccs1` (stereo not shown) [CBK086668] was 87%.
Turning to `O=C1CC(c2ccccc2F)C2=C(COC2=O)N1` (stereo not shown) [CBK086692], the viability at 28.5 h, 10 µM was determined as 92%.
The result for `CNS(=O)(=O)c1c(C)nn(-c2ccccc2)c1C` [CBK086715] reads 102%; that for `CN(C(=O)c1ccccc1N)c1ccccc1` [CBK086716], 97.6%.
In the case of `Cc1ccc(NC(=O)c2ccccc2)s1` [CBK086724], the viability at 28.5 h, 10 µM came out at 95.2%.
Consider `CCOC(=O)c1[nH]c2ccccc2c1NC(C)=O` [CBK086755], for which the viability at 28.5 h, 10 µM was 92.7%.
The result for `O=C1c2ccccc2C(=O)N1CCc1c[nH]c2ccc(O)cc12` [CBK086794] reads 76%; that for `COc1ccc(C(=O)NC(N2CCCCC2)C(Cl)(Cl)Cl)cc1` (stereo not shown) [CBK087021], 89.1%; that for `CN(Cc1ccccc1)C(C#N)c1c[nH]c2ccccc12` (stereo not shown) [CBK087062], 95.3%.
The value for `O=C1NCCCc2nc(Nc3ccccc3)sc21` [CBK087091] was 83.8%; that for `CC1CN(C)C(C)CC1OC(=O)C(c1ccccc1)c1ccccc1` (stereo not shown) [CBK087393] was 105%.
On to `C/C(Cl)=C\CN1C(=O)C(=O)c2cc(C)ccc21` [CBK087601], for which the viability at 28.5 h, 10 µM came out at 92.3%.
The value for `O=C(CNC(=O)c1ccccc1Cl)Nc1ccc(Br)cc1C(=O)c1ccccc1` [CBK087691] was 101%; that for `O=C(CSCc1ccccc1)Nc1ccc(S(=O)(=O)N2CCOCC2)cc1` [CBK087885] was 93.3%.
As for `CCc1ccccc1NC(=O)Cc1ccc(OC)cc1` [CBK087898], the viability at 28.5 h, 10 µM is 85.7%.
The result for `COc1ccc(OC(=O)c2cccc(F)c2)c(C(C)=O)c1` [CBK088044] reads 89%; that for `O=C(NCCOc1ccccc1)NC(=O)C1CCNCC1` [CBK088187T], 119%.
On to `CCCCNc1nccnc1-c1ccccc1` [CBK088477], for which the viability at 28.5 h, 10 µM was found to be 90.1%.
`C=CCNc1nccnc1-c1cccc(O)c1` [CBK088505]: the viability at 28.5 h, 10 µM worked out at 88.2%.
The value for `CCNc1nccnc1-c1ccncc1` [CBK088586] was 119%.
With `CCNc1nccnc1-c1ccc(O)cc1` [CBK088589], the viability at 28.5 h, 10 µM came to 108%.
With `c1ccc(-c2nccnc2NCc2ccco2)cc1` [CBK088642], the viability at 28.5 h, 10 µM is 94.3%.
As for `CC(C)CNc1nccnc1-c1cccc(C=O)c1` [CBK088744], the viability at 28.5 h, 10 µM worked out at 100%.
With `CCC(CO)Nc1nccnc1-c1ccoc1` (stereo not shown) [CBK088756], the viability at 28.5 h, 10 µM was 100%.
Take `OCCN1CCN(c2nccnc2-c2cccs2)CC1` [CBK088811]: the viability at 28.5 h, 10 µM worked out at 106%.
The value for `CN1CCCN(c2nccnc2-c2cccc(O)c2)CC1` [CBK088820] was 112%; that for `CN1CCCN(c2nccnc2-c2cccs2)CC1` [CBK088823] was 98.5%.
Consider `CN1CCN(c2nccnc2-c2ccoc2)CC1` [CBK088834], for which the viability at 28.5 h, 10 µM amounted to 98.6%.
Take `Nc1nn2c(c1Cc1c(Cl)cccc1Cl)OCCC2` [CBK088843]: the viability at 28.5 h, 10 µM turned out to be 92.8%.
With `OCCNc1nccnc1-c1ccc2c(c1)OCO2` [CBK088984], the viability at 28.5 h, 10 µM is 95%.
Turning to `NC(=O)c1cccc(-c2nccnc2NCCO)c1` [CBK088993], the viability at 28.5 h, 10 µM worked out at 97%.
The value for `CC(C)[C@H](CO)Nc1nccnc1-c1ccncc1` [CBK089030] was 91.9%.
